Laboratory results published in US8084479B2, “Thiazole compounds and methods of use” (Amgen Inc., priority 2006, dated 2011).

biological target: PKBα (Homo sapiens, UniProt P31749); test: PKB kinase assay (P33-labeled ATP, peptide substrate, filter plate); format: biochemical; conditions: PKBα enzyme (full length or kinase domain with pleckstrin domain deleted)
Source text: The kinase assay for evaluating PKB activity comprises active PKB enzymes, a PKB specific substrate, and P^33-labeled ATP. […] The phosphorylated substrate was captured by a phosphocellulose membrane filter plate (MLLIPORE) and measured by a Wallac Microbeta liquid scintillation counter (Perkin Elmer).

Chain of PKBα (P31749 118-480 limits assumed): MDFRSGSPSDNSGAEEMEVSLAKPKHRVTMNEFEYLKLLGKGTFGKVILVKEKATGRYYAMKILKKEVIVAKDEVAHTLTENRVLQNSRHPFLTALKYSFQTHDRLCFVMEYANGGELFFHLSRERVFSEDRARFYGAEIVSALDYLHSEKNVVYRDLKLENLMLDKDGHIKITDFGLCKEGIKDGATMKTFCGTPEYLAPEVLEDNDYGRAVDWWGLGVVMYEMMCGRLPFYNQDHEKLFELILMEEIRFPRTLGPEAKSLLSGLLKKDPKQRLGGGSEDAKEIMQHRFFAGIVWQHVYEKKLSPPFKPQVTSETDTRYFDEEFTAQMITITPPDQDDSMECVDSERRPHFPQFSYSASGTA

SMILES	IC50
N[C@H](CNc1ncc(-c2cc3ccncc3s2)s1)Cc1ccc(C(F)(F)F)cc1 [Example 108, N—((S)-2-amino-3-(4-(trifluoromethyl)phenyl)propyl)-5-(thieno[2,3-c]pyridin-2-yl)thiazol-2-amine]	< 0.05 µM
CC(=O)N[C@H](CNc1ncc(-c2ccc3c(c2)CC(=O)N3)s1)Cc1ccc(C(F)(F)F)cc1 [Example 128, N—((S)-1-(5-(2-Oxoindolin-5-yl)thiazol-2-ylamino)-3-(4-(trifluoro-methyl)phenyl)propan-2-yl)acetamide]	1 to 10 µM
Cc1ccc(C[C@H](N)CNc2ncc(-c3ccc4c(c3)CC(=O)N4)s2)cc1 [Example 116, 5-(2-((S)-2-Amino-3-p-tolylpropylamino)thiazol-5-yl)indolin-2-one]	0.05 to 1 µM
N[C@H](CNc1ncc(-c2ccc3c(c2)CC(=O)N3)s1)Cc1ccc(Cl)c(F)c1 [Example 86, 5-(2-((S)-2-Amino-3-(4-chloro-3-fluorophenyl)propylamino)thiazol-5-yl)indolin-2-one]	< 0.05 µM
NC(CNc1nc(Cl)c(-c2ccc3cnccc3c2)s1)Cc1ccc(C(F)(F)F)cc1 (stereo not shown) [Example 165]	0.05 to 1 µM
N[C@H](CNc1ncc(-c2ccc3c(c2)/C(=C/c2ccco2)C(=O)N3)s1)Cc1c[nH]c2ccccc12 (stereo in doubt) [Example 72, (E)- and (Z)-5-(2-((S)-2-amino-3-(1H-indol-3-yl)propylamino)thiazol-5-yl)-3-(furan-2-ylmethylene)indolin-2-one ditrifluoroacetates]	0.05 to 1 µM
C[C@@H](c1ccc(C(F)(F)F)cc1)[C@H](N)CNc1ncc(-c2ccc3[nH]c(=O)n(C)c3c2)s1 [Example 93, 6-(2-((2S,3S)-2-amino-3-(4-(trifluoromethyl)phenyl)butylamino)thiazol-5-yl)-1-methyl-1H-benzo[d]imidazol-2(3H)-one]	0.05 to 1 µM
CC(C)(C)C(=O)OC[C@@H](c1ccc(C(F)(F)F)cc1)[C@H](N)CNc1ncc(-c2ccc3c(c2)CC(=O)N3)s1 [Example 242, (2S,3S)-3-amino-4-(5-(2-oxoindolin-5-yl)thiazol-2-ylamino)-2-(4-(trifluoromethyl)phenyl)butyl pivalate]	0.05 to 1 µM
N[C@H](CNc1ncc(-c2ccc3c(c2)C(F)(F)C(=O)N3)s1)Cc1ccc(C(F)(F)F)cc1 [Example 41, 5-(2-((S)-2-amino-3-(4-(trifluoromethyl)phenyl)propylamino)thiazol-5-yl)-3,3-difluoroindolin-2-one]	0.05 to 1 µM
COCc1nc(NC[C@@H](N)Cc2ccc(Cl)cc2)sc1-c1nc2ccncc2s1 [Example 19, N—((S)-2-amino-3-(4-chlorophenyl)propyl)-4-(methoxymethyl)-5-(thiazolo[5,4-c]pyridin-2-yl)thiazol-2-amine]	< 0.05 µM
N[C@H](CNc1nc(-c2cccnc2)c(-c2ccc3cnccc3c2)s1)Cc1ccc(C(F)(F)F)cc1 [Example 104, N—((S)-2-Amino-3-(4-(trifluoromethyl)phenyl)propyl)-5-(isoquinolin-6-yl)-4-(pyridin-3-yl)thiazol-2-amine]	0.05 to 1 µM
N[C@H](CNc1nc(C(F)(F)CO)c(-c2ccc3cnccc3c2)s1)Cc1ccc(C(F)(F)F)cc1 [Example 134, 2-(2-((S)-2-Amino-3-(4-(trifluoromethyl)phenyl)-propylamino)-5-(isoquinolin-6-yl)thiazol-4-yl)-2,2-difluoroethanol]	0.05 to 1 µM
Cn1c(=O)[nH]c2ccc(-c3sc(NC[C@@H](N)Cc4ccc(C(F)(F)F)cc4)nc3C#N)cc21 [Example 62, 2-((S)-2-amino-3-(4-(trifluoromethyl)phenyl)propylamino)-5-(3-methyl-2-oxo-2,3-dihydro-1H-benzo[d]imidazol-5-yl)thiazole-4-carbonitrile]	1 to 10 µM
N[C@H](CNc1ncc(-c2ccc3cnccc3c2)s1)Cc1ccc(Cl)c(F)c1 [Example 85, N—((S)-2-Amino-3-(4-chloro-3-fluorophenyl)propyl)-5-(isoquinolin-6-yl)thiazol-2-amine]	< 0.05 µM
COc1cc(C[C@H](N)CNc2ncc(-c3ccc4[nH]c(=O)n(C)c4c3)s2)cnc1C(F)(F)F [Example 175, 6-(2-((S)-2-amino-3-(5-methoxy-6-(trifluoromethyl)pyridin-3-yl)propylamino)thiazol-5-yl)-1-methyl-1H-benzo[d]imidazol-2(3H)-one]	< 0.05 µM
N[C@H](CNc1ncc(-c2ccc3[nH]c(=O)oc3c2)s1)Cc1cccc(C(F)(F)F)c1 [Example 46, 6-(2-((S)-2-amino-3-(3-(trifluoromethyl)phenyl)propylamino)thiazol-5-yl)benzo[d]oxazol-2(3H)-one]	0.05 to 1 µM
N[C@H](CNc1nc(C#CC2=CCCC2)c(-c2ccc3cnccc3c2)s1)Cc1ccc(C(F)(F)F)cc1 [Example 147, N—((S)-2-amino-3-(4-(trifluoromethyl)phenyl)propyl)-4-(2-cyclopentenylethynyl)-5-(isoquinolin-6-yl)thiazol-2-amine]	1 to 10 µM

SMILES	IC50
Nc1noc2ccc(-c3cnc(NC[C@@H](N)Cc4c[nH]c5ccccc45)s3)cc12 [Example 38, 5-(2-((S)-2-amino-3-(1H-indol-3-yl)propylamino)thiazol-5-yl)benzo[d]isoxazol-3-amine]	0.05 to 1 µM
N[C@H](CNc1nc(C(F)(F)CO)c(-c2ccc3[nH]c(=O)oc3c2)s1)Cc1ccc(C(F)(F)F)cc1 [Example 135, 6-(2-((S)-2-Amino-3-(4-(trifluoromethyl)phenyl)-propylamino)-4-(1,1-difluoro-2-hydroxyethyl)thiazol-5-yl)benzo[d]oxazol-2(3H)-one]	1 to 10 µM
COCc1nc(N(C[C@H](Cc2ccc(C(F)(F)F)cc2)NCCN2CCOCC2)C(C)=O)sc1-c1nc2ccncc2s1 [Example 33, N-(4-(methoxymethyl)-5-(thiazolo[5,4-c]pyridin-2-yl)thiazol-2-yl)-N—((S)-2-(2-morpholinoethylamino)-3-(4-(trifluoromethyl)phenyl)propyl)acetamide]	> 10 µM
CNC(=O)c1nc(NC[C@@H](N)Cc2ccc(C(F)(F)F)cc2)sc1-c1ccc2cnccc2c1 [Example 120, 2-((S)-2-amino-3-(4-(trifluoromethyl)phenyl)-propylamino)-5-(isoquinolin-6-yl)-N-methylthiazole-4-carboxamide]	< 0.05 µM
COCc1nc(NC[C@@H](N)Cc2cccc(Cl)c2)sc1-c1nc2ccncc2s1 [Example 18, N—((S)-2-amino-3-(3-chlorophenyl)propyl)-4-(methoxymethyl)-5-(thiazolo[5,4-c]pyridin-2-yl)thiazol-2-amine]	1 to 10 µM
Cn1c(=O)[nH]c2ccc(-c3cnc(NC[C@@H](N)Cc4ccc(C(F)(F)F)cc4)s3)cc21 [Example 57, 6-(2-((S)-2-amino-3-(4-(trifluoromethyl)phenyl)propylamino)thiazol-5-yl)-1-methyl-1H-benzo[d]imidazol-2(3H)-one]	< 0.05 µM
Cn1c(=O)[nH]c2ccc(-c3cnc(NC[C@@H](N)Cc4cc(F)cc(F)c4)s3)cc21 [Example 162, 6-(2-((S)-2-amino-3-(3,5-difluorophenyl)propylamino)thiazol-5-yl)-1-methyl-1H-benzo[d]imidazol-2(3H)one]	1 to 10 µM
CC(O)C#Cc1nc(NC[C@@H](N)Cc2ccc(C(F)(F)F)cc2)sc1-c1ccc2c(c1)CC(=O)N2 (stereo partly drawn) [Example 144, 5-(2-((S)-2-amino-3-(4-(trifluoromethyl)phenyl)propylamino)-4-(3-hydroxybut-1-ynyl)thiazol-5-yl)indolin-2-one]	< 0.05 µM
N[C@H](CNc1ncc(-c2cc3oc(=O)[nH]c3cc2F)s1)Cc1ccc(C(F)(F)F)cc1 [Example 112, 6-(2-((S)-2-Amino-3-(4-(trifluoromethyl)phenyl)propylamino)thiazol-5-yl)-5-fluorobenzo[d]oxazol-2(3H)-one]	< 0.05 µM
N[C@H](CNc1ncc(-c2ccc3c(c2)CC(=O)N3)s1)Cc1ccc(Cl)cc1Cl [Example 113, 5-(2-((S)-2-Amino-3-(2,4-dichlorophenyl)propylamino)thiazol-5-yl)indolin-2-one]	0.05 to 1 µM
N[C@H](CNc1ncc(-c2ccc3c(c2)CC(=O)N3)s1)Cc1ccc(O)cc1 [Example 192, 5-(2-((S)-2-amino-3-(4-hydroxyphenyl)propylamino)thiazol-5-yl)indolin-2-one]	1 to 10 µM
C[C@@H](c1ccc(C(F)(F)F)cc1)[C@H](N)CNc1ncc(-c2ccc3[nH]c(=O)oc3c2)s1 [Example 109, 6-(2-((2S,3S)-2-Amino-3-(4-(trifluoromethyl)phenyl)butylamino)-thiazol-5-yl)benzo[d]oxazol-2(3H)-one]	< 0.05 µM
CCC[C@@H](c1ccc(C(F)(F)F)cc1)[C@H](N)CNc1ncc(-c2ccc3cnccc3c2)s1 [Example 157, N-((2S,3S)-2-amino-3-(4-(trifluoromethyl)phenyl)hexyl)-5-(isoquinolin-6-yl)thiazol-2-amine]	< 0.05 µM
N[C@H](CNc1nc(-c2ccccn2)c(-c2nc3ccncc3s2)s1)Cc1ccc(C(F)(F)F)cc1 [Example 60, N—((S)-2-amino-3-(4-(trifluoromethyl)phenyl)propyl)-4-(pyridin-2-yl)-5-(thiazolo[5,4-c]pyridin-2-yl)thiazol-2-amine]	1 to 10 µM
NC(CNc1ncc(-c2ccc3cnccc3c2)s1)Cc1ccc(C(F)(F)F)cc1F (stereo not shown) [Example 177, N-(-2-amino-3-(2-fluoro-4-(trifluoromethyl)phenyl)propyl)-5-(isoquinolin-6-yl)thiazol-2-amine]	< 0.05 µM
N[C@H](CNc1ncc(-c2ccc3cnccc3c2)s1)Cc1ccc(NC(=O)OCc2ccccc2)cc1 [Example 223, Benzyl 4-((S)-2-amino-3-(5-(isoquinolin-6-yl)thiazol-2-ylamino)propyl)phenylcarbamate]	1 to 10 µM
N[C@@H](CNc1ncc(-c2ccc3[nH]c(=O)oc3c2)s1)Cc1ccc(C(F)(F)F)c(F)c1 [Example 182, 6-(2-((R)-2-amino-3-(3-fluoro-4-(trifluoromethyl)phenyl)propylamino)thiazol-5-yl)benzo[d]oxazol-2(3H)-one]	0.05 to 1 µM
